# Tested on: RXF393 renal xenografts
# Test: Single dose anti-tumor activity, RXF393 renal xenograft
# Format: in vivo
# Conditions: RXF-393
# Description: Male NCr nude mice were injected intravenously via the lateral tail vein on day 7 post-tumor-implantation with saline (♦), NVB at 45.0 mg/kg (◯) and 34.0 mg/kg (□), or NVB-TCS at 15.0 mg/kg (●) and 11.0 mg/kg (▪) at a drug-to-lipid ratio of 0.3:1 (w/w). The arrow on the x-axis denotes the day of drug administration. Data points represent mean±SEM (n=10). […]
# Tumor models investigated included RXF393 (renal), MX-1 (breast), LX-1 (small cell lung cancer), PC-3 (prostate), and HT29 (colon). These models were known to be sensitive to vinorelbine. Tumor fragments were implanted subcutaneously in the flank of NCr nu/nu mice. […] Animal weights and tumor size were determined twice weekly.
compound,measurement,setting,value
"CCC1=C[C@@H]2CN(C1)Cc1c([nH]c3ccccc13)[C@@](C(=O)OC)(c1cc3c(cc1OC)N(C)[C@H]1[C@@](O)(C(=O)OC)[C@H](OC(C)=O)[C@]4(CC)C=CCN5CC[C@]31[C@@H]54)C2 [VRL, 5′-noranhydrovinblastine]",% T/C (optimal % T/C following final treatment),single i.v. dose 34 mg/kg,−6%
same,DRD (drug related deaths),single i.v. dose 34 mg/kg,2/10
same,MWL (maximum mean weight loss per treatment group),single i.v. dose 34 mg/kg,−23.1
same,NCI Score,single i.v. dose 34 mg/kg,2
same,T-C (tumor growth delay to 1000 mm^3),single i.v. dose 34 mg/kg,22
same,TF (tumor free animals at the end of study),single i.v. dose 34 mg/kg,2/8
same,% T/C (optimal % T/C following final treatment),single i.v. dose 45 mg/kg,Toxic
same,DRD (drug related deaths),single i.v. dose 45 mg/kg,9/10
same,MWL (maximum mean weight loss per treatment group),single i.v. dose 45 mg/kg,−24.6
same,TF (tumor free animals at the end of study),single i.v. dose 45 mg/kg,0/1

# From patent US20040071768A1, “Compositions and methods for treating cancer” (Inex Pharmaceuticals Corporation, priority 1999, published 2004)
